From patent US20090253633A1, “Novel Combinations of DNAK Inhibitors With Known Antibacterial Agents” (priority 2005, published 2009)
Bridges are numbered along the chain shown (N, C = ends). Roman numbers before positions name the chains, in order. [ ]: non-standard residue; d: D form. NMeR = CN[C@@H](CCCNC(=N)N)C(=O)O; Api = NC1(C(=O)O)CCNCC1; Dab = NCC[C@H](N)C(=O)O

Test system: E. coli isolate CHP-04-002EC
Assay: MIC against the E. coli test isolate
Format: cell-based
Conditions: stated as 1×MIC
Procedure: Growth inhibition assays were performed using the Gram negative E. coli isolate CHP-04-002EC obtained from Laboratory Specialists, Inc. (Westlake, Ohio). […] Untreated bacterial culture served as growth control. At 4, 8, 12 and 24 hrs post-application, the cultures were serially diluted, plated and allowed to grow overnight. Colony forming units (CFU) were determined by counting the number of newly grown colonies and multiplying by the dilution factor.

Work on “I: H-[Api]DKGSYLPRPTPPRPIYN[NMeR]N[Dab]-NH2 / II: H-[Api]DKGSYLPRPTPPRPIYN[NMeR]N (amide I:21-II:C) [CHP-105]” yielded an MIC of 64 µg/mL.
